According to patent publication US7683091B2, “Substituted indoles and methods of their use” (Wyeth, priority 2005, dated 2010):

The compounds below were run against T1, recombinant human plasminogen activator inhibitor-1 (PAI-1) (Homo sapiens, UniProt P05121) (assay: Primary Screen for PAI-1 Inhibition (chromogenic tPA activity assay)). Settings: 140 nM PAI-1, 70 nM tPA, pH 6.6.
T1 construct: purchased Molecular Innovations, Royal Oak, Mich
Assay type: biochemical
Method: Primary Screen for PAI-1 Inhibition
The ability of the compounds of this invention to inhibit Plasminogen Activator Inhibitor-1 was established by the following experimental procedure:
Test compounds were dissolved in DMSO at a final concentration of 10 mM, then diluted […] in physiologic buffer. The inhibitory assay was initiated by the addition of the test compound (1-100 μM final concentration, maximum DMSO concentration of 0.2%) in a pH 6.6 buffer containing 140 nM recombinant human plasminogen activator inhibitor-1 (PAI-1; Molecular Innovations, Royal Oak, Mich.). Following a 1 hour incubation at room temperature, 70 nM of recombinant human tissue plasminogen activator (tPA) was added, and the combination of the test compound, PAI-1 and tPA was incubated for an additional 30 minutes. Following the second incubation, Spectrozyme-tPA (American Diagnostica, Greenwich, Conn.), a chromogenic substrate for tPA, was added and absorbance read at 405 nm at 0 and 60 minutes. Relative PAI-1 inhibition is equal to the residual tPA activity in the presence of the test compound and PAI-1. Control treatments include the complete inhibition of tPA by PAI-1 at the molar ratio employed (2:1), and the absence of any effect of the test compound on tPA alone.

T1 sequence (P05121 24-402): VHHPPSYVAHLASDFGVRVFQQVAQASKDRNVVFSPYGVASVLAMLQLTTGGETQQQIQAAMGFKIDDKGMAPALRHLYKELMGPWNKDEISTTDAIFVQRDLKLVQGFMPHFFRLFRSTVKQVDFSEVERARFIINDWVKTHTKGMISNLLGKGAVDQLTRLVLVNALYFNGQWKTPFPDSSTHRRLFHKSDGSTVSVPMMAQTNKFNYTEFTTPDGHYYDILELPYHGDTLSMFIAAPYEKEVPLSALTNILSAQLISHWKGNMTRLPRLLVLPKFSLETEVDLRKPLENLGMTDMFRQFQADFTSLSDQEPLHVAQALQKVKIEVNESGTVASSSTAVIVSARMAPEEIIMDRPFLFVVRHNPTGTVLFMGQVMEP

Inhibition at 25 µM, 6 to 78%:
CC(C)(C)c1ccc(S(=O)(=O)Nc2ccc3c(ccn3Cc3ccc(C(=O)NCCC(=O)O)cc3)c2)cc1 [Example 16, N-{4-[(5-{[(4-tert-Butylphenyl)sulfonyl]amino}-1H-indol-1-yl)methyl]benzoyl}-β-alanine]
CC(C)(C)c1ccc(S(=O)(=O)Nc2ccc3c(ccn3CC(=O)N[C@@H](Cc3ccccc3)C(=O)O)c2)cc1 [Example 22, N-[(5-{[(4-tert-Butylphenyl)sulfonyl]amino}-1H-indol-1-yl)acetyl]-L-phenylalanine]
COC(=O)CN(c1ccc2c(ccn2Cc2ccc(C(C)(C)C)cc2)c1)S(=O)(=O)c1ccccc1 [Example 2, {Benzenesulfonyl-[1-(4-tert-butyl-benzyl)-1H-indol-5-yl]-amino}-acetic acid methyl ester]
CC(C)(C)c1ccc(Cn2ccc3cc(NC(=O)Nc4cccc(C(=O)O)c4)ccc32)cc1 [Example 6, 3-[({[1-(4-tert-Butylbenzyl)-1H-indol-5-yl]amino}carbonyl)amino]benzoic acid]
CC(C)C[C@H](NC(=O)Cn1ccc2cc(NS(=O)(=O)c3ccc(-c4ccccc4)cc3)ccc21)C(=O)O [Example 23, N-({5-[(1,1′-biphenyl-4-ylsulfonyl)amino]-1H-indol-1-yl}acetyl)-L-leucine]
CC(C)(C)c1ccc(S(=O)(=O)Nc2ccc3c(ccn3Cc3ccc(C(=O)N4CCC(C(=O)O)CC4)cc3)c2)cc1 [Example 19, 1-{4-[(5-{[(4-tert-Butylphenyl)sulfonyl]amino}-1H-indol-1-yl)methyl]benzoyl}piperidine-4-carboxylic acid]
CC(C)(C)c1ccc(Cn2ccc3cc(NS(=O)(=O)c4cccc(C(=O)O)c4)ccc32)cc1 [Example 1, 3-({[1-(4-tert-butylbenzyl)-1H-indol-5-yl]amino}sulfonyl)benzoic acid]
O=C(O)Cn1ccc2cc(NS(=O)(=O)c3ccc(-c4ccccc4)cc3)ccc21 [Example 20, {5-[(1,1′-Biphenyl-4-ylsulfonyl)amino]-1H-indol-1-yl}acetic acid]
O=C(N[C@@H](Cc1ccccc1)C(=O)O)c1ccc(Cn2ccc3cc(NS(=O)(=O)c4ccc(OC(F)(F)F)cc4)ccc32)cc1 [Example 11, N-(4-{[5-({[4-(Trifluoromethoxy)phenyl]sulfonyl}amino)-1H-indol-1-yl]methyl}benzoyl)-L-phenylalanine]
O=C(O)C1CCN(C(=O)c2ccc(Cn3ccc4cc(NS(=O)(=O)c5ccc(-c6ccccc6)cc5)ccc43)cc2)CC1 [Example 18, 1-[4-({5-[(1,1′-Biphenyl-4-ylsulfonyl)amino]-1H-indol-1-yl}methyl)benzoyl]piperidine-4-carboxylic acid]
O=C(O)CCNC(=O)c1ccc(Cn2ccc3cc(NS(=O)(=O)c4ccc(OC(F)(F)F)cc4)ccc32)cc1 [Example 14, N-(4-{[5-({[4-(Trifluoromethoxy)phenyl]sulfonyl}amino)-1H-indol-1-yl]methyl}benzoyl)-β-alanine]
O=C(Cn1ccc2cc(NS(=O)(=O)c3ccc(-c4ccccc4)cc3)ccc21)N[C@@H](Cc1ccccc1)C(=O)O [Example 21, N-({5-[(1,1′-Biphenyl-4-ylsulfonyl)amino]-1H-indol-1-yl}acetyl)-L-phenylalanine]
O=C(O)C1CCN(C(=O)c2ccc(Cn3ccc4cc(NS(=O)(=O)c5ccc(Cl)c(Cl)c5)ccc43)cc2)CC1 [Example 17, 1-{4-[(5-{[(3,4-Dichlorophenyl)sulfonyl]amino}-1H-indol-1 yl)methyl]benzoyl}piperidine-4-carboxylic acid]
O=C(N[C@@H](Cc1ccccc1)C(=O)O)c1ccc(Cn2ccc3cc(NS(=O)(=O)c4ccccc4)ccc32)cc1 [Example 10, N-[4-({5-[(Phenylsulfonyl)amino]-1H-indol-1-yl}methyl)benzoyl]-L-phenylalanine]
CC(C)(C)c1ccc(Cn2ccc3cc(N(Cc4ccc(C(=O)O)cc4)S(=O)(=O)c4ccccc4)ccc32)cc1 [Example 3, 4-{[[1-(4-tert-Butylbenzyl)-1H-indol-5-yl](phenylsulfonyl)amino]methyl}benzoic acid]
O=C(O)CCNC(=O)c1ccc(Cn2ccc3cc(NS(=O)(=O)c4ccc(-c5ccccc5)cc4)ccc32)cc1 [Example 15, N-[4-({5-[(1,1′-Biphenyl-4-ylsulfonyl)amino]-1H-indol-1-yl}methyl)benzoyl]-β-alanine]
CC(C)(C)c1ccc(Cn2ccc3cc(NC(=O)N[C@@H](Cc4ccccc4)C(=O)O)ccc32)cc1 [Example 5, N-({[1-(4-tert-Butylbenzyl)-1H-indol-5-yl]amino}carbonyl)-L-phenylalanine]
CC(C)(C)c1ccc(S(=O)(=O)Nc2ccc3c(ccn3Cc3ccc(OCC(=O)O)cc3)c2)cc1 [Example 8, {4-[(5-{[(4-tert-Butylphenyl)sulfonyl]amino}-1H-indol-1-yl)methyl]phenoxy}acetic acid]
O=C(O)COc1ccc(Cn2ccc3cc(NS(=O)(=O)c4ccc(-c5ccccc5)cc4)ccc32)cc1 [Example 7, [4-({5-[(1,1′-Biphenyl-4-ylsulfonyl)amino]-1H-indol-1-yl}methyl)phenoxy]acetic acid]
CC(C)(C)c1ccc(S(=O)(=O)Nc2ccc3c(ccn3Cc3ccc(C(=O)N[C@@H](Cc4ccccc4)C(=O)O)cc3)c2)cc1 [Example 13, N-{4-[(5-{[(4-tert-Butylphenyl)sulfonyl]amino}-1H-indol-1-yl)methyl]benzoyl}-L-phenylalanine]
CC(C)(C)c1ccc(Cn2ccc3cc(NS(=O)(=O)c4ccc(C(=O)O)cc4)ccc32)cc1 [Example 4, 4-({[1-(4-tert-butylbenzyl)-1H-indol-5-yl]amino}sulfonyl)benzoic acid]
O=C(O)C(Cc1ccccc1)n1ccc2cc(NS(=O)(=O)c3ccc(OC(F)(F)F)cc3)ccc21 (stereo not drawn) [Example 9, 3-Phenyl-2-[5-({[4-(trifluoromethoxy)phenyl]sulfonyl}amino)-1H-indol-1-yl]propanoic acid]
CC(C)C[C@H](NC(=O)Cn1ccc2cc(NS(=O)(=O)c3ccc(C(C)(C)C)cc3)ccc21)C(=O)O [Example 24, N-[(5-{[(4-tert-butylphenyl)sulfonyl]amino}-1H-indol-1-yl)acetyl]-L-leucine]
O=C(N[C@@H](Cc1ccccc1)C(=O)O)c1ccc(Cn2ccc3cc(NS(=O)(=O)c4ccc(-c5ccccc5)cc4)ccc32)cc1 [Example 12, N-[4-({5-[(1,1′-Biphenyl-4-ylsulfonyl)amino]-1H-indol-1-yl}methyl)benzoyl]-L-phenylalanine]
